Where two headings read alike, the source gives them in different places.
Assays:
[1] = system: Yersinia entomophaga; assay: CFU counts after exposure of Yersinia entomophaga to insecticides; type: cell-based; settings: 1 hour contact
Excerpt: To test combinations of Yersinia entomophaga and pesticides for their ability to produce a pesticidal effect, or an effect on plant growth or yield, we first put various insecticides in contact with Yersinia to identify insecticides that had minimal toxicity to Yersinia entomophaga. The logic was that, if Yersinia entomophaga is to function well in combination with a chemical insecticide, the chemical insecticide would ideally have low or no effect on the ability of Yersinia entomophaga to survive, grow and/or to function.
To perform this study, we selected amounts of various insecticides based on the percent of the specific insecticide in the insecticide composition obtained from a manufacturer. We also considered the application rate of the particular insecticide, as recommended by the manufacturer. […] Generally, the 1× amount was considered possibly the lowest amount of insecticide that may be considered as an effective amount for use in the combinations disclosed herein. For each insecticide, we also used a higher amount of insecticide (generally a 5× or 10× amount).
The 1× and 5×/10× amounts of each insecticide were added to tubes along with 1 ml of ethyl acetate. The tubes were mixed until the insecticides dissolved. The tubes were left open in a fume hood overnight to allow the ethyl acetate to evaporate. The insecticide remained in the tubes, as a solid coat on the interior surface of the tubes.
A growing culture of Yersinia entomophaga, grown in LB medium, was diluted and 1 ml of the diluted culture was added to each tube containing the dried insecticide. The tubes were mixed and then left on the bench top for 1 hour. Then, 100 μl from each tube was plated onto LB plates in triplicate in CFU assays. Plates were incubated at 25° C. for 48 hours and colonies were counted.

[2] = system: tobacco budworm
[3] = system: cabbage looper
[4] = system: fall armyworm; assay: Leaf disk mortality assay, Y. entomophaga cells with chemical insecticides; settings: for % Mort. Chem. / LT50 Chem.: fall armyworm
[5] = system: black cutworm; settings: indoxacarb 0.53 mg/L
Method: To produce cell free filtrates, cultures of Yersinia entomophaga grown in LB medium were centrifuged at 11,448 (g) for 10 minutes. The supernatant was decanted from the centrifuged pellet and filtered through a 0.22 μm filter. Assays were performed to determine concentrations of Yen-TC (toxin complex) using ELISA, and chitinase by measuring chitinase activity on specific substrates. […] This was done to estimate relative potency of the cell free filtrates. Insects were first pre-screened with a range of dilutions of cell free filtrates to select a concentration that provided moderate activity. […] Based on these initial screens, undiluted cell free filtrate was used for cabbage looper, fall armyworm, black cutworm, and Colorado potato beetle. […] In each of the Examples below, this is expressed as 1%.
Cabbage leaf disks were dipped in either acetone (controls and Y. entomophaga alone treatments) or in indoxacarb (Sigma 33969) at 0.53 mg/L in acetone. These were set to dry for 1 hr. […] After the cabbage disks had dried for 1 hr, a single 2nd instar black cutworm was added to each individual cabbage disk. A total of 20 insects were evaluate for each treatment. Insects were observed daily and scored as live or dead.
Cabbage leaf disks were dipped in either acetone (controls and Y. entomophaga alone treatments) or in flubendiamide (Sigma 32801) at 0.59 mg/L in acetone. These were set to dry for 1 hr. […] After the cabbage disks had dried for 1 hr, a single 2nd instar black cutworm was added to each individual cabbage disk. A total of 20 insects were evaluate for each treatment. Insects were observed daily and scored as live or dead.

[6] = system: diamondback moth; assay: whole plant or invertebrate; settings: for LT50 Chem.: Diamondback moth
Excerpt: (§1) These were set to dry for 1 hr.
as §1
These were set to dry for 1 hr. Cabbage disks were then dipped in either 1% Luria broth (LB) media solution (controls and thiacloprid alone treatments) or in 1% cell free filtrate from a culture Y. entomophaga isolate O24G3R (Y. entomophaga alone or in combination with thiacloprid treatments).

[7] = system: black cutworm; assay: Leaf disk mortality assay, Y. entomophaga cells with chemical insecticides
[8] = system: cabbage looper; settings: for LT50 Chem. / % Mort. Chem.: Cabbage Looper
[9] = system: cabbage looper; assay: whole plant or invertebrate; settings: Trichoplusia ni, foliar
[10] = system: diamondback moth; assay: Leaf disk mortality assay, Y. entomophaga cells with chemical insecticides
[11] = 3rd instar, indoxacarb 0.53 mg/L, isolate O43NEW 1×10^6 cfu/mL
[12] = 3rd instar, indoxacarb 0.53 mg/L, isolate O43NEW 1×10^4 cfu/mL
[13] = 3rd instar, emamectin benzoate 0.67 mg/L, isolate O23ZMJ 1×10^5 cfu/mL
[14] = 3rd instar, emamectin benzoate 0.002 mg/L, isolate O43NEW 1×10^3 cfu/mL

Compound: CNC(=O)Oc1cccc2ccccc12 [Carbaryl]
- Average CFU ([1]; 1.0 mg insecticide): 456 CFU
- Average CFU ([1]; 9.6 mg insecticide): 459 CFU
- % Mortality (4DAT) ([2]; in vivo): 50%
- % Mortality (5DAT) ([2]; in vivo): 65%
- LT50 (95% confidence intervals) in days ([2]; in vivo): 4.06 (3.65-4.52) days
- % Mort. Chem. ([2]; tobacco budworm, Carbaryl 100 mg/L, 4 DAT): 50%
- LT50 Chem. ([2]; tobacco budworm, Carbaryl alone 100 mg/L): 4.06 days
- % Mort. Chem. ([3]; cabbage looper, Carbaryl 100 mg/L, 2 DAT): 21%
- LT50 Chem. ([3]; cabbage looper, Carbaryl alone 100 mg/L): 3.60 days
- % Mortality (1DAT) ([3]; in vivo): 4%
- % Mortality (2DAT) ([3]; in vivo): 21%
- LT50 (95% confidence intervals) in days ([3]; in vivo): 3.60 (3.12-4.17) days

Compound: COC(=O)N(C(=O)N1CO[C@@]2(C(=O)OC)Cc3cc(Cl)ccc3C2=N1)c1ccc(OC(F)(F)F)cc1 [Indoxacarb]
- Average CFU ([1]; 0.2 mg insecticide): 452 CFU
- Average CFU ([1]; 1.1 mg insecticide): 477 CFU
- % Mortality (5DAT) [4, 11]: 5%
- % Mortality (6DAT) [4, 11]: 10%
- LT50 (95% confidence intervals) [4, 11]: 9.65 days
- LT50 (95% confidence intervals) in days ([4]; 3rd instar, indoxacarb […], isolate O23ZMJ 1×10^5 cfu/mL): 5.14 (4.67-5.66) days
- % Mort. Chem. ([4]; Indoxacarb 0.53 mg/L, 6 DAT): 10%
- LT50 Chem. ([4]; Indoxacarb alone 0.53 mg/L): 9.65 days
- LT50 Chem. ([4]; Indoxacarb alone […]): 5.14 days
- LT50 (95% confidence intervals) in days ([5]; 2nd instar black cutworm, O43NEW undiluted filtrate, alone or combined): 10.99 (9.75-12.42) days
- % Mortality (2DAT) ([5]; 2nd instar black cutworm, O43NEW undiluted filtrate, alone or combined, 2 DAT, Abbott's corrected): 0%
- % Mortality (6DAT) ([5]; 2nd instar black cutworm, O43NEW undiluted filtrate, alone or combined, 6 DAT, Abbott's corrected): 0%
- % Mortality (8DAT) ([5]; 2nd instar black cutworm, O43NEW undiluted filtrate, alone or combined, 8 DAT, Abbott's corrected): 11%
- % Mortality (9DAT) ([5]; 2nd instar black cutworm, O43NEW undiluted filtrate, alone or combined, 9 DAT, Abbott's corrected): 21%
- LT50 Chem. ([5]; Black cutworm): 10.99 days
- % Mort. Chem. ([5]; Black cutworm, 9 DAT): 21%
- LT50 (95% confidence intervals) ([6]; 2nd instar diamondback moth, indoxacarb […], O43NEW filtrate 1%, alone or combined): 3.47 days
- LT50 Chem. ([6]; indoxacarb […]): 3.47 days
- % Mortality (3DAT) [7, 12]: 11%
- % Mortality (4DAT) [7, 12]: 6%
- % Mortality (5DAT) [7, 12]: 0%
- % Mortality (6DAT) [7, 12]: 6%
- LT50 (95% confidence intervals) in days [7, 12]: 7.64 (7.01-8.32) days
- % Mort. Chem. ([7]; black cutworm, Indoxacarb 0.53 mg/L, 5 DAT): 0%
- LT50 Chem. ([7]; black cutworm, Indoxacarb alone 0.53 mg/L): 7.64 days
- LT50 Chem. ([8]; indoxacarb 0.53 mg/L): 11.98 days
- % Mort. Chem. ([8]; indoxacarb 0.53 mg/L, 9 DAT): 25%
- % Mortality (2DAT) ([8]; cabbage looper, indoxacarb 0.53 mg/L, undiluted O43NEW filtrate, 2 DAT, Abbott's corrected): 0%
- % Mortality (6DAT) ([8]; cabbage looper, indoxacarb 0.53 mg/L, undiluted O43NEW filtrate, 6 DAT, Abbott's corrected): 15%
- % Mortality (7DAT) ([8]; cabbage looper, indoxacarb 0.53 mg/L, undiluted O43NEW filtrate, 7 DAT, Abbott's corrected): 15%
- % Mortality (8DAT) ([8]; cabbage looper, indoxacarb 0.53 mg/L, undiluted O43NEW filtrate, 8 DAT, Abbott's corrected): 25%
- % Mortality (9DAT) ([8]; cabbage looper, indoxacarb 0.53 mg/L, undiluted O43NEW filtrate, 9 DAT, Abbott's corrected): 25%
- % Mortality (12DAT) ([8]; cabbage looper, indoxacarb 0.53 mg/L, undiluted O43NEW filtrate, Abbott's corrected): 61%
- % Mortality (14DAT) ([8]; cabbage looper, indoxacarb 0.53 mg/L, undiluted O43NEW filtrate, 14 DAT, Abbott's corrected): 59%

Compound: CNC(=O)ON=C(C)SC [Methomyl]
- Average CFU ([1]; 0.3 mg insecticide): 192 CFU
- Average CFU ([1]; 3.4 mg insecticide): 0 CFU
- mortality at 30 µg/mL ([9]; 24 h, read-out: % Mortality (1DAT)): 4%
- mortality at 30 µg/mL ([9]; 48 h, read-out: % Mortality (2DAT)): 12%
- LT50 Chem. ([3]; cabbage looper, Methomyl alone 30 mg/L): 5.84 days
- % Mort. Chem. ([3]; in vivo): 12%
- LT50 (95% confidence intervals) in days ([3]; in vivo): 5.84 (4.99-6.88) days

Compound: O=C(NC(=O)c1c(F)cccc1F)Nc1ccc(OC(F)(F)C(F)OC(F)(F)F)c(Cl)c1 (centres unmarked) [Novaluron]
- Average CFU ([1]; 0.1 mg insecticide): 528 CFU
- Average CFU ([1]; 1.0 mg insecticide): 452 CFU
- mortality at 1 µg/mL ([9]; 120 h, read-out: % Mortality (5DAT)): 11%
- mortality at 1 µg/mL ([9]; 144 h, read-out: % Mortality (6DAT)): 21%
- LT50 (95% confidence intervals) in days ([7]; 3rd instar, novaluron […], isolate O43NEW 1×10^4 cfu/mL): 9.40 (8.58-10.32) days
- LT50 Chem. ([7]; black cutworm, Novaluron alone […]): 9.40 days
- % Mort. Chem. ([3]; cabbage looper, Novaluron 1 mg/L, 5 DAT): 11%
- LT50 Chem. ([3]; cabbage looper, Novaluron alone 1 mg/L): 7.55 days
- LT50 (95% confidence intervals) in days ([3]; in vivo): 7.55 (7.01-8.13) days
- LT50 Chem. ([8]; novaluron 1 mg/L): 7.31 days
- % Mort. Chem. ([8]; novaluron 1 mg/L, 6 DAT): 0%

Compound: Emamectin benzoate
- Average CFU ([1]; 1.5 mg insecticide): 489 CFU
- Average CFU ([1]; 15 mg insecticide): 459 CFU
- % Mortality (4DAT) [4, 13]: 20%
- LT50 (95% confidence intervals) in days [4, 13]: 5.10 (4.65-5.59) days
- LT75 (95% confidence intervals) in days ([4]; 3rd instar, emamectin benzoate 2 mg/L, isolate O43NEW 1×10^6 cfu/mL): 6.54 (5.76-7.44) days
- % Mort. Chem. ([4]; Emamectin benzoate 0.67 mg/L, 4 DAT): 20%
- LT50 Chem. ([4]; Emamectin benzoate alone 0.67 mg/L): 5.10 days
- LT50 Chem. ([4]; Emamectin benzoate alone 2 mg/L): 6.54 days
- % Mortality (4DAT) [10, 14]: 5%
- LT50 (95% confidence intervals) in days [10, 14]: 6.21 (5.38-7.14) days
- % Mort. Chem. ([10]; diamondback moth, Emamectin benzoate 0.002 mg/L, 4 DAT): 5%
- LT50 Chem. ([10]; diamondback moth, Emamectin benzoate alone 0.002 mg/L): 6.21 days
- LT50 (95% confidence intervals) in days ([6]; 3rd instar diamondback moth, emamectin benzoate 0.002 mg/L, O43NEW filtrate 1%, alone or combined): 6.21 (5.38-7.14) days
- LT50 Chem. ([6]; emamectin benzoate 0.002 mg/L): 6.21 days
- % Mort. Chem. ([3]; cabbage looper, Emamectin benzoate 0.02 mg/L, 7 DAT): 13%
- % Mortality (7DAT) ([3]; in vivo): 13%
- LT50 (95% confidence intervals) in days ([3]; in vivo): 7.61 (7.08-8.19) days
- LT50 Chem. ([3]; in vivo): 7.61 days
- % Mortality (5DAT) ([8]; 3rd instar cabbage looper, emamectin benzoate 0.02 mg/L, O43NEW undiluted filtrate, alone or combined, 5 DAT, Abbott's corrected): 5%
- % Mortality (12DAT) ([8]; 3rd instar cabbage looper, emamectin benzoate 0.02 mg/L, O43NEW undiluted filtrate, alone or combined, Abbott's corrected): 94%
- LT50 Chem. ([8]; emamectin benzoate 0.02 mg/L): 7.22 days
- % Mort. Chem. ([8]; emamectin benzoate 0.02 mg/L, 5 DAT): 94%

Source: patent US11716994B2, “Combinations of Yersinia entomophaga and pesticides or other substances” (priority 2017, dated 2023)
